In this assay the target is T1, LPA/S1P GPCR of interest (Homo sapiens, UniProt Q92633).
T1 construct: host or cells: CHO
The assay is described as follows: Beta-Arrestin based assay (PathHunter). It is filed as cell-based. The method, then:
CMV promoter based DNA constructs expressing a fusion of the LPA/S1P GPCR of interest and ProLink™ tag were used to transfect EA Parental™ CHO cells (DiscoverX, Fremont, Calif.) using a FuGENE® transfection kit (Roche). Beta-Arrestin based assays were conducted 24-48 hrs post transfection using PathHunter® assay kits (DiscoverX, Fremont, Calif.). Agonist and antagonist assays were performed in quadruplicate in white 384 well plates. End point luminescence data were plotted and fit to a 4 parameter logistic function to obtain IC50 values. For antagonist assays, an IC80 concentration of agonist (LPA) equal to 0.5 micromolar was used.

Some results are limits rather than exact numbers.

A word on the EC50: it is the concentration needed to bring the measured effect to its halfway point. Read a high EC50 as lower potency in that assay.

T1 sequence (Q92633 whole entry): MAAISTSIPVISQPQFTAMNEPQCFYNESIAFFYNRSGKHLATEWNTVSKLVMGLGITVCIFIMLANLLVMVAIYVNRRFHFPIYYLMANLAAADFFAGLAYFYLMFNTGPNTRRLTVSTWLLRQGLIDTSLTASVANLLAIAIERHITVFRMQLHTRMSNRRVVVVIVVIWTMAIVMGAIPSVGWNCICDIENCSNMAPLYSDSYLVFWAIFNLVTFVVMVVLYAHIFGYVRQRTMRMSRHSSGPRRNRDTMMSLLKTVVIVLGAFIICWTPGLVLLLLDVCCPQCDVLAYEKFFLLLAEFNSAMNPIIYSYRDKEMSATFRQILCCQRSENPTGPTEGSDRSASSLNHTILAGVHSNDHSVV

On to `C[C@@H](OC(=O)Nc1c(-c2ccc(-c3ccc(C(=O)O)s3)cc2)nnn1C)c1ccccc1` [IT203], for which the concentration for a half-maximal effect (EC50) is > 500 nM.
As for `Cc1nsc(-c2cc3sc(-c4ccc(CC(=O)O)c(F)c4F)cc3s2)c1NC(=O)O[C@H](C)c1ccccc1` [IT265], the EC50 was in the range of 50 to 500 nM.
With `Cc1nsc(-c2cc3sc(-c4ccc(C5(C(=O)O)CC5)cc4F)cc3s2)c1NC(=O)O[C@H](C)c1ccccc1` [IT244] the figure was < 50 nM; with `COc1cc(-c2cc3sc(-c4nnn(C)c4NC(=O)O[C@H](C)c4ccccc4)cc3s2)ccc1C1(C(=O)O)CC1` [IT330], 50 to 500 nM; with `Cc1nsc(-c2cc3sc(-c4ccc(-c5nnc(C6(C(=O)O)CC6)s5)cc4)cc3s2)c1NC(=O)O[C@H](C)c1ccccc1` [IT289], > 500 nM.
With `C[C@@H](OC(=O)Nc1nn(C)cc1-c1ccc(-c2cc(F)c(Oc3ncccc3C(=O)O)c(F)c2)cc1)c1ccccc1` [IT472], the EC50 is > 500 nM.
For `C[C@@H](OC(=O)Nc1c(-c2cc3sc(-c4ccc(C5(C(=O)O)CC5)c5ccccc45)cc3s2)cnn1C)c1ccccc1` [IT320], the EC50 is > 500 nM.
With `C[C@@H](OC(=O)Nc1c(-c2cc3sc(-c4cc(F)c(CC(=O)O)cc4F)cc3s2)nnn1C)c1ccccc1` [IT328] the figure was 50 to 500 nM; with `C[C@@H](OC(=O)Nc1c(-c2cc3sc(-c4ccc5c(C6(C(=O)O)CC6)coc5c4)cc3s2)nnn1C)c1ccccc1` [IT396], 50 to 500 nM.
The same measure for `C[C@@H](OC(=O)Nc1scnc1C#Cc1cc2sc(C3(C(=O)O)CC3)cc2s1)c1ccccc1` [IT116]: > 500 nM.
The same measure for `C[C@@H](OC(=O)Nc1c(-c2cc3sc(-c4ccc(CC(=O)O)c(S(C)(=O)=O)c4)cc3s2)nnn1C)c1ccccc1` [IT443]: > 500 nM; for `C[C@@H](OC(=O)Nc1c(-c2cc3sc(-c4ccc(CC(=O)O)cc4C(F)(F)F)cc3s2)nnn1C)c1ccccc1` [IT363]: > 500 nM.
`Cc1cc(CC(=O)O)c(F)cc1-c1cc2sc(-c3nnn(C)c3NC(=O)O[C@H](C)c3ccccc3)cc2s1` [IT253] had a 50% effective concentration (EC50) of 50 to 500 nM.
In the case of `C[C@@H](OC(=O)Nc1c(-c2cc3sc(-c4ccc(C5(C(=O)O)CC5)c(C(F)(F)F)c4)cc3s2)nnn1C)c1ccccc1` [IT380], the EC50 was in the range of 50 to 500 nM.
With `Cc1nsc(-c2cc3sc(-c4ccc(-c5nnc(C6(C(=O)O)CC6)o5)cc4)cc3s2)c1NC(=O)O[C@H](C)c1ccccc1` [IT216] the figure was > 500 nM.
Consider `Cc1nsc(-c2cc3sc(-c4ccc(C5(C(=O)O)CC5)c5ccccc45)cc3s2)c1NC(=O)O[C@H](C)c1ccccc1` [IT322], for which the EC50 was > 500 nM.
The same measure for `C[C@@H](OC(=O)Nc1c(-c2cc3sc(-c4ccc(CC(=O)O)nc4)cc3s2)cnn1C)c1ccccc1` [IT214]: 50 to 500 nM; for `C[C@@H](OC(=O)Nc1c(-c2cc3sc(-c4ccc(C5(C(=O)O)CC5)cc4C(F)(F)F)cc3s2)nnn1C)c1ccccc1` [IT299]: 50 to 500 nM; for `COc1cc(-c2cc3sc(-c4cnn(C)c4NC(=O)O[C@H](C)c4ccccc4)cc3s2)c(OC)cc1CC(=O)O` [IT349]: > 500 nM.
As to `Cc1noc(-c2ccc(NC(=O)c3csc(C4(C(=O)O)CC4)n3)cc2)c1NC(=O)O[C@H](C)c1ccccc1` [IT152], the EC50 is > 500 nM.
The same measure for `Cc1nsc(-c2cc3sc(-c4ccc5c(C6(C(=O)O)CC6)coc5c4)cc3s2)c1NC(=O)O[C@H](C)c1ccccc1` [IT397]: > 500 nM; for `C[C@@H](OC(=O)Nc1c(-c2cc3sc(-c4ccc5[nH]c(C6(C(=O)O)CC6)nc5c4)cc3s2)cnn1C)c1ccccc1` [IT427]: > 500 nM.
Consider `Cc1cc(-c2cc3sc(-c4snc(C)c4NC(=O)O[C@H](C)c4ccccc4)cc3s2)c(F)cc1CC(=O)O` [IT241], for which the EC50 was > 500 nM.
For `C[C@@H](OC(=O)Nc1c(-c2cc3sc(-c4ccc(-c5nnc(CC(=O)O)o5)cc4)cc3s2)cnn1C)c1ccccc1` [IT206], the EC50 was > 500 nM.
For the molecule `C[C@@H](OC(=O)Nc1c(-c2cc3sc(-c4ccc(CC(=O)O)c(C(F)(F)F)c4)cc3s2)nnn1C)c1ccccc1` [IT223], the EC50 lay in the range of 50 to 500 nM.
Take `C[C@@H](OC(=O)NC1=C(c2ccc(-c3cc(F)c(OC(C)(C)C(=O)O)c(F)c3)cc2)OC2C=CC=CC12)c1ccccc1` (stereo partly shown) [IT501]: the EC50 is 50 to 500 nM.
Molecule `Cc1noc(-c2ccc(-c3ccc(Oc4ncoc4C(=O)O)cc3)cc2)c1NC(=O)O[C@H](C)c1ccccc1` [IT419] registered an EC50 of 50 to 500 nM.
The same measure for `C[C@@H](OC(=O)Nc1c(-c2cc3sc(-c4ccc5scc(C6(C(=O)O)CC6)c5c4)cc3s2)cnn1C)c1ccccc1` [IT370]: > 500 nM; for `C[C@@H](OC(=O)Nc1c(-c2cc3sc(-c4ccc(CC(=O)O)c(S(C)(=O)=O)c4)cc3s2)cnn1C)c1ccccc1` [IT445]: > 500 nM; for `C[C@@H](OC(=O)Nc1c(-c2cc3sc(-c4ccc(CC(=O)O)cc4C(F)(F)F)cc3s2)cnn1C)c1ccccc1` [IT362]: > 500 nM.
In turn, `C[C@@H](OC(=O)Nc1c(-c2cc3sc(-c4ccc(C5(C(=O)O)CC5)cc4OC(F)(F)F)cc3s2)cnn1C)c1ccccc1` [IT385] returned an EC50 of 50 to 500 nM.
Regarding `C[C@@H](OC(=O)Nc1c(-c2ccc(C#CC(=O)NCCC(=O)O)cc2)cnn1C)c1ccccc1` [IT432], the EC50 is > 500 nM.
On to `Cc1nsc(-c2cc3sc(-c4ccc(C5(C(=O)O)CC5)c(S(C)(=O)=O)c4)cc3s2)c1NC(=O)O[C@H](C)c1ccccc1` [IT458], for which the EC50 is > 500 nM.
`Cc1nsc(-c2cc3sc(C4CCC(C(=O)O)C4)cc3s2)c1NC(=O)O[C@H](C)c1ccccc1` (stereo partly shown) [IT276]: the EC50 is > 500 nM.
As to `C[C@@H](OC(=O)Nc1c(-c2ccc(C#CC(=O)NCC(=O)O)cc2)cnn1C)c1ccccc1` [IT398], the EC50 was > 500 nM.
With `Cc1nsc(-c2cc3sc(-c4ccc(C5(C(=O)O)CC5)nc4)cc3s2)c1NC(=O)O[C@H](C)c1ccccc1` [IT271] the figure was 50 to 500 nM; with `C[C@@H](OC(=O)Nc1c(-c2cc3sc(-c4ccc5occ(C6(C(=O)O)CC6)c5c4)cc3s2)cnn1C)c1ccccc1` [IT334], > 500 nM; with `Cc1cc(-c2cc3sc(-c4nnn(C)c4NC(=O)O[C@H](C)c4ccccc4)cc3s2)ccc1CC(=O)O` [IT250], 50 to 500 nM.
The same measure for `C[C@@H](OC(=O)Nc1c(-c2cc3sc(-c4ccc5occ(CC(=O)O)c5c4)cc3s2)nnn1C)c1ccccc1` [IT268]: 50 to 500 nM; for `C[C@@H](OC(=O)Nc1c(-c2ccc(-c3ncc(C(=O)O)s3)cc2)nnn1C)c1ccccc1` [IT209]: > 500 nM.
In turn, `Cc1noc(-c2ccc(-c3ccc(OCC(=O)O)cc3)cc2)c1NC(=O)O[C@H](C)c1ccccc1` [IT277] yielded an EC50 of 50 to 500 nM.
The same measure for `C[C@@H](OC(=O)Nc1c(-c2cc3sc(-c4ccc(CC(=O)O)cc4OC(F)(F)F)cc3s2)cnn1C)c1ccccc1` [IT383]: > 500 nM.
For the molecule `Cc1nsc(-c2cc3sc(-c4ccc(C5(C(=O)O)CC5)s4)cc3s2)c1NC(=O)O[C@H](C)c1ccccc1` [IT274], the EC50 was in the range of 50 to 500 nM.
With `Cc1nsc(-c2cc3sc(-c4ccc(-c5nnc(CC(=O)O)s5)cc4)cc3s2)c1NC(=O)O[C@H](C)c1ccccc1` [IT213] the figure was > 500 nM; with `Cc1cc(CC(=O)O)c(F)cc1-c1cc2sc(-c3snc(C)c3NC(=O)O[C@H](C)c3ccccc3)cc2s1` [IT252], > 500 nM; with `COc1cc(C2(C(=O)O)CC2)c(F)cc1-c1cc2sc(-c3cnn(C)c3NC(=O)O[C@H](C)c3ccccc3)cc2s1` [IT411], 50 to 500 nM.
Turning to `C[C@@H](OC(=O)Nc1c(-c2ccc(-c3nnc(CC(=O)O)o3)cc2)nnn1C)c1ccccc1` [IT143], the EC50 was > 500 nM.
With `Cn1ncc(C#Cc2cc3sc(C4(C(=O)O)CC4)cc3s2)c1N` [IT113] the figure was > 500 nM; with `C[C@@H](OC(=O)Nc1c(-c2cc3sc(-c4cnc(C5(C(=O)O)CC5)c(F)c4)cc3s2)nnn1C)c1ccccc1` [IT393], < 50 nM.
The same measure for `Cc1nsc(-c2cc3sc(-c4ccc5scc(CC(=O)O)c5c4)cc3s2)c1NC(=O)O[C@H](C)c1ccccc1` [IT354]: > 500 nM; for `C[C@@H](OC(=O)Nc1c(-c2cc3sc(-c4ccc(CC(=O)O)c5ccccc45)cc3s2)nnn1C)c1ccccc1` [IT318]: > 500 nM; for `Cc1nsc(-c2ccc(-c3cnc(C4(C(=O)O)CC4)s3)cc2)c1NC(=O)O[C@H](C)c1ccccc1` [IT202]: 50 to 500 nM.
In turn, `C[C@@H](OC(=O)Nc1c(-c2cc3sc(-c4ccc(CC(=O)O)c(F)c4)cc3s2)nnn1C)c1ccccc1` [IT293] showed a 50% effective concentration (EC50) of 50 to 500 nM.
With `COc1cc(-c2cc3sc(-c4nnn(C)c4NC(=O)O[C@H](C)c4ccccc4)cc3s2)cnc1C1(C(=O)O)CC1` [IT358] the figure was 50 to 500 nM; with `Cc1nsc(-c2ccc(-c3ncc(C(=O)O)s3)cc2)c1NC(=O)O[C@H](C)c1ccccc1` [IT177], > 500 nM; with `C[C@@H](OC(=O)Nc1c(-c2cc3sc(-c4ccc5c(CC(=O)O)c[nH]c5c4)cc3s2)cnn1C)c1ccccc1` [IT377], > 500 nM.
Take `Cc1cc(-c2cc3sc(-c4cnn(C)c4NC(=O)O[C@H](C)c4ccccc4)cc3s2)ccc1CC(=O)O` [IT254]: the EC50 was 50 to 500 nM.
In the case of `Cc1nsc(-c2cc3sc(-c4ccc(C5(C(=O)O)CC5)cc4OC(F)(F)F)cc3s2)c1NC(=O)O[C@H](C)c1ccccc1` [IT387], the EC50 lay in the range of 50 to 500 nM.
`Cc1cc(-c2cc3sc(-c4cnn(C)c4NC(=O)O[C@H](C)c4ccccc4)cc3s2)c(F)cc1C1(C(=O)O)CC1` [IT339] gave an EC50 of 50 to 500 nM.
Turning to `Cc1cc(-c2cc3sc(-c4nnn(C)c4NC(=O)O[C@H](C)c4ccccc4)cc3s2)c(F)cc1CC(=O)O` [IT242], the EC50 is > 500 nM.
With `Cc1cc(-c2cc3sc(-c4cnn(C)c4NC(=O)O[C@H](C)c4ccccc4)cc3s2)ccc1C1(C(=O)O)CC1` [IT323] the figure was 50 to 500 nM.
